Source: PubChem BioAssay AID2060891 (Molecular Pharmacology Branch, DTP, NCI, 2025)
“And” between values parts separate entries of the source, which are not always exact repeats. Identical values can stand only once.

Test system: K98450-129-R-PDC complex spheroid growth, percent test/control
Experiment: Anticancer human tumor K98450-129-R-PDC patient-derived colon adenocarcinoma cell line growth inhibition [RAS]
Conditions: for viability, T/C: stronger effect = lower value
Excerpt: RAS pathway inhibitors in Combinations in Complex Spheroids
A high-throughput screen of multi-cell type tumor spheroids was designed to identify active combinations of RAS pathway inhibitors and targeted small molecules. Complex spheroids include a stromal component modeled by human endothelial cells (HUVEC) and fibroblasts modeled by human mesenchymal stem cells (MSCs). The concentration ranges selected for each drug and investigational agent were based upon clinically achievable concentrations if the clinical Cmax of the agent was known.
Compounds. The drugs and investigational agents: abemaciclib (NSC768073), cobimetinib (NSC768068), divarasib (GDC6063, NSC841802), docetaxel (NSC628503), GDC-1971 (RLY-1971, NSC841576), gemcitabine (NSC613327), inavolisib (NSC800729), ipatasertib (NSC767898), KB-0742 (NSC834161), MRTX-1133 (NSC836407), osimertinib (NSC779217), RMC-4630 (NSC839698), RMC-6236 (NSC851965), RMC-6291 (NSC852671), Ro-3306 (NSC812927), sapanisertib (NSC764658), SN-38 (NSC673596), staurosporine (NSC755774), SY5609 (NSC837396), and tovorafenib (DAY101, NSC766906), were obtained from the National Cancer Institute (NCI) Developmental Therapeutics Program Chemical Repository. The FDA-approved anticancer drug set is available from the NCI Developmental Therapeutics Program. […] The stock solutions were prepared in dimethyl sulfoxide (DMSO, Sigma-Aldrich, St. Louis, MO, cat. D2650) at 800-fold the tested concentration and stored at -70 degrees C prior to their use. All drugs and investigational agents were tested over a range starting from a high concentration at or near the clinical Cmax and decreasing in half-log increments. If the clinical Cmax for an agent had not been determined, the highest concentration tested was 10 microM.
Cell Culture. All cells were maintained in an incubator at 37 degrees C and 5% CO2 with 95% humidity. The PDC lines were cultured according to standard operating procedures established by the NCI PDMR. All PDCs were thawed and cultured in Matrigel-coated flasks prepared with a working solution of 1X Ham's F-12 nutrient mix, without supplementation (Invitrogen, Waltham, MA, cat. 11765054), 100 U/mL penicillin-streptomycin (Invitrogen, cat. 15140122), and 2.5% Matrigel (Corning Inc., Corning, NY, cat. 354248) for the first three passages. The 362531-283-R-J2-PDC and 782815-120-R-J1-PDC lines were cultured in 6C/Colon 1B media, which includes advanced DMEM/F-12 (Thermo Fisher Scientific, cat. 12634028), 10 mM HEPES (Thermo Fisher Scientific, cat. 15630080), 1X GlutaMAX supplement (Thermo Fisher Scientific, cat. 35050061), 0.1 mg/mL primocin (InvivoGen, San Diego, CA, cat. ant-pm-2), 10% defined fetal bovine serum, heat inactivated (HyClone Laboratories Inc., Logan, UT, cat. SH30070.03HI), 50% L-WRN conditioned media (ATCC, cat. CRL-3276), 1.25 mM N-Acetyl-L-cysteine (Sigma-Aldrich, cat. A9165), 10 mM nicotinamide (Sigma-Aldrich, cat. N0636), 1X B-27 supplement (Thermo Fisher Scientific, cat. 17504044), 1X N-2 supplement (Thermo Fisher Scientific, cat. 17502048), 50 ng/mL human EGF (Thermo Fisher Scientific, cat. PHG0311), and 10 microM Y-27632 dihydrochloride (Tocris Bioscience, cat. 1254). The K12877-001-R-J1-PDC line was cultured in 6I media, which includes all 6C/Colon 1B media plus 10 ng/mL human FGF-10 (PeproTech, cat. 100-26), 1 ng/mL human FGF-2 (PeproTech, cat. 100-18B), 1 µM prostaglandin E2 (Tocris Bioscience, cat. 2296), […] hydrocortisone (Sigma-Aldrich, cat. H4001), and […] bovine insulin (Sigma-Aldrich, cat. I6634). The K86415-001-R-J1-PDC line was cultured in 6D media, which includes all 6C/Colon 1B media components minus the L-WRN conditioned media. The 485176-168-R4-J1-PDC was cultured in PANC media, which includes all 6C/Colon 1B media plus 100 ng/mL human FGF-10 (PeproTech, cat. 100-26), 500 nM SB-431542 (Selleckchem, cat. S1067), and 10 nM gastrin (Tocris Bioscience, cat. 3006). […]

[1] = compound alone, run of 06/10/2024
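Note: spheroids exposed to agents for seven days before the viability readout.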
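Throughout, for viability, T/C: luminescence used as a proxy for viable cell amount.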

In the case of `C#Cc1c(F)ccc2cc(O)cc(-c3ncc4c(N5CC6CCC(C5)N6)nc(OCC56CCCN5CC(F)C6)nc4c3F)c12` (stereo not drawn), the viability, T/C (compound 0.0316 µM) is reported as 106% [middle of 8 runs], the viability, T/C (compound 0.1 µM) is reported as 105% [middle of 7 runs] and the viability, T/C (compound 0.316 µM) is reported as 105% [middle of 8 runs]. The viability, T/C (compound 1 µM) was 102% [middle of 8 runs], the viability, T/C (compound 3.16 µM) was 102% [middle of 8 runs] and the viability, T/C (compound 10 µM) was 95.1% [middle of 8 runs]. For the same molecule, the IC50 [1] was > 10000 nM.
In the case of `C=CC(=O)N1CCN(c2nc(OCC3CCCN3C)nc3c(F)c(-c4nc(N)cc(C)c4C(F)(F)F)c(Cl)cc23)C(C)C1` (stereo not drawn), the viability, T/C (compound 0.00316 µM) is reported as 97.9% [middle of 12 runs], the viability, T/C (compound 0.01 µM, compound 0.0316 µM) is reported as 70.9% and the viability, T/C (compound 0.01 µM, compound 0.1 µM) is reported as 59.3%. It also gave a viability, T/C (compound 0.01 µM, compound 0.316 µM) of 39.6%, a viability, T/C (compound 0.01 µM, compound 1 µM) of 29% and a viability, T/C (compound 0.0316 µM, compound 0.00316 µM) of 71.2%. It also gave a viability, T/C (compound 0.0316 µM, compound 0.01 µM) of 65.5%, a viability, T/C (compound 0.0316 µM, compound 0.1 µM) of 51.4% and a viability, T/C (compound 0.0316 µM, compound 0.316 µM) of 42.2%. The viability, T/C (compound 0.0316 µM, compound 1 µM) was 28.1%, the viability, T/C (compound 0.0316 µM) was 71.5% [middle of 13 runs] and the viability, T/C (compound 0.1 µM, compound 0.00316 µM) was 54.4%. For the same molecule, the viability, T/C (compound 0.1 µM, compound 0.01 µM) was 52.5%, the viability, T/C (compound 0.1 µM, compound 0.0316 µM) was 56.5% and the viability, T/C (compound 0.1 µM, compound 0.316 µM) was 41.4%. For the same molecule, the viability, T/C (compound 0.1 µM, compound 1 µM) was 30.8%, the viability, T/C (compound 0.1 µM) was 53.1% [middle of 13 runs] and the viability, T/C (compound 0.316 µM, compound 0.00316 µM) was 40.9%. The viability, T/C (compound 0.316 µM, compound 0.01 µM) was 38.6%, the viability, T/C (compound 0.316 µM, compound 0.0316 µM) was 43.2% and the viability, T/C (compound 0.316 µM, compound 0.1 µM) was 38.7%. The viability, T/C (compound 0.316 µM, compound 1 µM) was 31.3%, the viability, T/C (compound 0.316 µM) was 40.2% [middle of 13 runs] and the viability, T/C (compound 1 µM, compound 0.00316 µM) was 31.1%. For the same molecule, the viability, T/C (compound 1 µM, compound 0.01 µM) was 35.5%, the viability, T/C (compound 1 µM, compound 0.0316 µM) was 31.5% and the viability, T/C (compound 1 µM, compound 0.1 µM) was 30.9%. The viability, T/C (compound 1 µM, compound 0.316 µM) was 33.1%, the viability, T/C (compound 1 µM) was 34% [middle of 13 runs] and the IC50 [1] was 148 nM [middle of 8 runs]. For the same molecule, the IC50 (curve of compound) was 144 nM [middle of 4 runs].
For `C=CC(=O)Nc1cc(Nc2nccc(-c3cn(C)c4ccccc34)n2)c(OC)cc1N(C)CCN(C)C`, the viability, T/C (compound 0.00316 µM) was 102% (2×) and 95.4% and 104%, the viability, T/C (compound 0.01 µM) was 96.2% [middle of 4 runs] and the viability, T/C (compound 0.1 µM) was 100% [middle of 4 runs]. For the same molecule, the viability, T/C (compound 0.316 µM) was 70.7% [middle of 4 runs], the viability, T/C (compound 1 µM) was 36% [middle of 4 runs] and the IC50 (curve of compound) was 633 nM [middle of 4 runs].
`CC(C)n1nc(-c2ccc3oc(N)nc3c2)c2c(N)ncnc21` was tested, and the viability, T/C (compound 0.000316 µM) was 106% [middle of 4 runs], the viability, T/C (compound 0.001 µM) was 90.9% [middle of 4 runs] and the viability, T/C (compound 0.00316 µM) was 93.6% [middle of 4 runs]. For the same molecule, the viability, T/C (compound 0.01 µM) was 96.8% [middle of 4 runs], the viability, T/C (compound 0.0316 µM) was 79.8% [middle of 4 runs] and the viability, T/C (compound 0.1 µM) was 78.4% (2×) and 86.4% and 72.6%. For the same molecule, the IC50 (curve of compound) was > 100 nM.
For `CC(Nc1ccc2c(c1)OCCn1cc(N3C(=O)OCC3C(F)F)nc1-2)C(N)=O` (stereo not drawn), the viability, T/C (compound 0.0316 µM) was 99.5% [middle of 4 runs], the viability, T/C (compound 0.1 µM) was 91.6% [middle of 4 runs] and the viability, T/C (compound 0.316 µM) was 91.2% [middle of 4 runs]. For the same molecule, the viability, T/C (compound 1 µM) was 88.9% [middle of 4 runs], the viability, T/C (compound 3.16 µM) was 81.3% [middle of 4 runs] and the viability, T/C (compound 10 µM) was 73.7% [middle of 4 runs]. For the same molecule, the IC50 (curve of compound) was > 10000 nM.
`CC1(C)CCC(Nc2ncc(C(F)(F)F)c(-c3c[nH]c4c(P(C)(C)=O)c(C#N)ccc34)n2)CN1` (stereo not drawn) was tested, and the viability, T/C (compound 0.000949 µM) was 105% [middle of 4 runs], the viability, T/C (compound 0.003 µM) was 105% (2×) and 98.6% and 96.4% and the viability, T/C (compound 0.00949 µM) was 106% [middle of 4 runs]. For the same molecule, the viability, T/C (compound 0.03 µM) was 107% (2×) and 109% and 99.9%, the viability, T/C (compound 0.0949 µM) was 94.4% [middle of 4 runs] and the viability, T/C (compound 0.3 µM) was 86.1% [middle of 4 runs]. For the same molecule, the IC50 (curve of compound) was > 300 nM.
With `CCN1CCN(Cc2ccc(Nc3ncc(F)c(-c4cc(F)c5nc(C)n(C(C)C)c5c4)n3)nc2)CC1` the viability, T/C (compound 0.00316 µM) was 103% [middle of 4 runs], the viability, T/C (compound 0.01 µM) was 99.4% [middle of 4 runs] and the viability, T/C (compound 0.0316 µM) was 96.8% [middle of 4 runs]. The viability, T/C (compound 0.1 µM) was 97.3% [middle of 4 runs] and the IC50 (curve of compound) was > 1000 nM.
In the case of `CCc1c2c(nc3ccc(O)cc13)-c1cc3c(c(=O)n1C2)COC(=O)[C@]3(O)CC`, the viability, T/C (compound 0.000949 µM) is reported as 104% [middle of 4 runs], the viability, T/C (compound 0.003 µM) is reported as 97.8% [middle of 4 runs] and the viability, T/C (compound 0.00949 µM) is reported as 92.5% [middle of 4 runs]. The viability, T/C (compound 0.03 µM) was 69% [middle of 4 runs], the viability, T/C (compound 0.3 µM) was 49.5% [middle of 4 runs] and the IC50 (curve of compound) was 48.9 nM and > 300 nM and 43.1 nM.
For `CCn1c(-c2cc(N3CCN(C)CC3)cnc2C(C)OC)c2c3cc(ccc31)-c1csc(n1)CC(NC(=O)C1CC1C)C(=O)N1CCCC(N1)C(=O)OCC(C)(C)C2` (stereo not drawn), the viability, T/C (compound 0.000949 µM) was 93.1% [middle of 8 runs], the viability, T/C (compound 0.003 µM) was 86.4% [middle of 8 runs] and the viability, T/C (compound 0.03 µM) was 56.8% [middle of 8 runs]. The viability, T/C (compound 0.0949 µM) was 23.6% [middle of 8 runs], the viability, T/C (compound 0.3 µM) was 14.1% [middle of 8 runs] and the IC50 (compound alone, run of 05/20/2024) was 35 nM [middle of 8 runs].
For `CCn1c(-c2cccnc2C(C)OC)c2c3cc(ccc31)N1CCOC(CC(NC(=O)C(C(C)C)N(C)C(=O)C3(F)CCN(C(=O)C#CC(C)(C)N(C)C)CC3)C(=O)N3CCCC(N3)C(=O)OCC(C)(C)C2)C1` (stereo not drawn), the viability, T/C (compound 0.000949 µM) was 78.5% [middle of 8 runs], the viability, T/C (compound 0.003 µM) was 63.4% [middle of 8 runs] and the viability, T/C (compound 0.00949 µM) was 47.8% [middle of 8 runs]. The viability, T/C (compound 0.03 µM) was 43.1% [middle of 8 runs], the viability, T/C (compound 0.0949 µM) was 41.6% [middle of 8 runs] and the viability, T/C (compound 0.3 µM) was 35.3% [middle of 8 runs].
`Nc1ccn(C2OC(CO)C(O)C2(F)F)c(=O)n1` (stereo not drawn) was tested, and the viability, T/C (compound 0.00316 µM) was 80.7% and 103% (2×) and 107%, the viability, T/C (compound 0.01 µM) was 96.2% [middle of 4 runs] and the viability, T/C (compound 0.0316 µM) was 78.8% [middle of 4 runs]. For the same molecule, the viability, T/C (compound 1 µM) was 49.4% [middle of 4 runs].
`O=C(c1ccc(F)c(F)c1Nc1ccc(I)cc1F)N1CC(O)([C@@H]2CCCCN2)C1` was tested, and the viability, T/C (compound 0.00316 µM) was 103% [middle of 4 runs], the viability, T/C (compound 0.0316 µM) was 97.5% [middle of 4 runs] and the viability, T/C (compound 0.1 µM) was 82.3% [middle of 4 runs]. For the same molecule, the viability, T/C (compound 0.316 µM) was 21.8% [middle of 4 runs], the viability, T/C (compound 1 µM) was 3.22% [middle of 4 runs] and the IC50 (curve of compound) was 190 nM [middle of 4 runs].
